Key:
Assay type in all cases: cell-based
Aspergillus niger = assay: Quantitative suspension test, reduction factors (Test 1)
Protocol: (§1) Reduction factors were obtained with various solutions for use (SA=Staphylococcus aureus, PA=Pseudomonas aeruginosa, EC=Escherichia coli, CA=Candida albicans, AN=Aspergillus niger, MT=Mycobacterium terrae), initial microbe count 0.8−5×10^9/ml, for CA 2×10^7/ml, neutralizer Tryp-NaCl-TLSH (No. 22). Concerning the activity on Mycobacterium terrae, cf.
(§2) […] After acting for times of 5, 15, 30 and 60 minutes, 1 ml samples of the disinfectant/microbe mixture are taken and transferred into 9 ml of inactivation liquid (0.1% tryptone+0.85% NaCl in double-distilled water+inactivators). After a contact time not exceeding 30 minutes in the inactivation liquid, dilutions (10^−2 and 10^−4 in 0.1% tryptone+0.85% NaCl in double-distilled water) are made up. 0.1 ml samples of the inactivation liquid and the two dilutions are then transferred by spatula onto 3 CSA plates for each. As a control, the respective test microbe suspension is mixed with 10 ml of WSH in place of disinfectant. Subcultures are to be set up from this batch in the same way in parallel with the corresponding action times.
(§3) All subcultures are incubated at 37° C. for 48 hours, in the case of Candida albicans at 37° C. for 72 hours, and the colonies are counted. The reduction is calculated as follows: CFU between 20 and 300 per CSA plate are to be evaluated. After determination of the arithmetic mean of three values, the disinfectant effect (GRt) per unit time is calculated from the formula GRt=logCFU(co) minus logCFU(D) in which CFU(co) is the number of CFU per ml without exposure to the product, and CFU(D) is the number of CFU per ml after exposure to the product.

Candida albicans = assay: as above
Protocol: as §1, §2, §3

Escherichia coli = assay: as above
Protocol: as §1, §2, §3

Pseudomonas aeruginosa = assay: as above
Protocol: as §1, §2, §3

Staphylococcus aureus = assay: as above
Protocol: as §1, §2, §3

[1] = system: Mycobacterium terrae (ATCC15755); assay: Mycobacterium terrae quantitative suspension test without stress (Test 2); settings: for Reduction factor: 0.1%
[2] = system: bacteria, fungi and mycobacteria; assay: Quantitative suspension tests, summary of activity in words

CCCCC(CC)COCC(O)CO (centres unmarked) [SC 50, 1-(2-Ethylhexyl)glycerol ether] showed a Reduction factor (Aspergillus niger; 0.05%, 30° C., 15′) of 0.08, a Reduction factor (Aspergillus niger; 0.05%, 30° C., 30′) of 0.70 and a Reduction factor (Aspergillus niger; 0.05%, 30° C., 60′) of 0.60. For the same molecule, the Reduction factor (Aspergillus niger; 0.05%, 50° C., 15′) was 0.12, the Reduction factor (Aspergillus niger; 0.05%, 50° C., 30′) was 0.12 and the Reduction factor (Aspergillus niger; 0.05%, 50° C., 60′) was −0.12. The Reduction factor (Aspergillus niger; 0.05%, room temperature, 15′) was 0.30, the Reduction factor (Aspergillus niger; 0.05%, room temperature, 30′) was −0.10 and the Reduction factor (Aspergillus niger; 0.05%, room temperature, 60′) was 0.22. It also gave a Reduction factor (Aspergillus niger; 0.1%, 30° C., 15′) of 0.30, a Reduction factor (Aspergillus niger; 0.1%, 30° C., 30′) of 0.70 and a Reduction factor (Aspergillus niger; 0.1%, 30° C., 60′) of 0.60. For the same molecule, the Reduction factor (Aspergillus niger; 0.1%, 50° C., 15′) was −0.10, the Reduction factor (Aspergillus niger; 0.1%, 50° C., 30′) was 0.30 and the Reduction factor (Aspergillus niger; 0.1%, 50° C., 60′) was 0.18. For the same molecule, the Reduction factor (Aspergillus niger; 0.1%, room temperature, 15′) was −0.35, the Reduction factor (Aspergillus niger; 0.1%, room temperature, 30′) was −0.10 and the Reduction factor (Aspergillus niger; 0.1%, room temperature, 60′) was 0.40. For the same molecule, the Reduction factor (Candida albicans; 0.05%, 30° C., 15′) was 0.00, the Reduction factor (Candida albicans; 0.05%, 30° C., 30′) was 0.00 and the Reduction factor (Candida albicans; 0.05%, 30° C., 60′) was 0.00. For the same molecule, the Reduction factor (Candida albicans; 0.05%, 40° C., 15′) was 0.54, the Reduction factor (Candida albicans; 0.05%, 40° C., 30′) was 0.45 and the Reduction factor (Candida albicans; 0.05%, 40° C., 60′) was 0.59. The Reduction factor (Candida albicans; 0.05%, 50° C., 15′) was 0.00, the Reduction factor (Candida albicans; 0.05%, 50° C., 30′) was 0.00 and the Reduction factor (Candida albicans; 0.05%, 50° C., 60′) was 1.08. It also gave a Reduction factor (Candida albicans; 0.05%, room temperature, 15′) of 0.00, a Reduction factor (Candida albicans; 0.05%, room temperature, 30′) of 0.00 and a Reduction factor (Candida albicans; 0.05%, room temperature, 60′) of 0.00. For the same molecule, the Reduction factor (Candida albicans; 0.1%, 30° C., 15′) was 0.10, the Reduction factor (Candida albicans; 0.1%, 30° C., 30′) was −0.08 and the Reduction factor (Candida albicans; 0.1%, 30° C., 60′) was 0.64. The Reduction factor (Candida albicans; 0.1%, 40° C., 15′) was 0.55, the Reduction factor (Candida albicans; 0.1%, 40° C., 30′) was 0.46 and the Reduction factor (Candida albicans; 0.1%, 40° C., 60′) was 0.65. The Reduction factor (Candida albicans; 0.1%, 50° C., 15′) was 1.07, the Reduction factor (Candida albicans; 0.1%, 50° C., 30′) was 1.53 and the Reduction factor (Candida albicans; 0.1%, 50° C., 60′) was 4.20. The Reduction factor (Candida albicans; 0.1%, room temperature, 15′) was 0.00, the Reduction factor (Candida albicans; 0.1%, room temperature, 30′) was 0.00 and the Reduction factor (Candida albicans; 0.1%, room temperature, 60′) was 0.00. It also gave a Reduction factor (Escherichia coli; 0.05%, 30° C., 15′) of 0.13, a Reduction factor (Escherichia coli; 0.05%, 30° C., 30′) of 0.25 and a Reduction factor (Escherichia coli; 0.05%, 30° C., 60′) of 0.36. It also gave a Reduction factor (Escherichia coli; 0.05%, 40° C., 15′) of 0.00, a Reduction factor (Escherichia coli; 0.05%, 40° C., 30′) of 0.00 and a Reduction factor (Escherichia coli; 0.05%, 40° C., 60′) of 0.00. For the same molecule, the Reduction factor (Escherichia coli; 0.05%, 50° C., 15′) was 1.17, the Reduction factor (Escherichia coli; 0.05%, 50° C., 30′) was 1.70 and the Reduction factor (Escherichia coli; 0.05%, 50° C., 60′) was 2.85. For the same molecule, the Reduction factor (Escherichia coli; 0.05%, room temperature, 15′) was 0.00, the Reduction factor (Escherichia coli; 0.05%, room temperature, 30′) was 0.43 and the Reduction factor (Escherichia coli; 0.05%, room temperature, 60′) was 0.25. It also gave a Reduction factor (Escherichia coli; 0.1%, 30° C., 15′) of 0.54, a Reduction factor (Escherichia coli; 0.1%, 30° C., 30′) of 0.58 and a Reduction factor (Escherichia coli; 0.1%, 30° C., 60′) of 1.15. For the same molecule, the Reduction factor (Escherichia coli; 0.1%, 40° C., 15′) was 1.84, the Reduction factor (Escherichia coli; 0.1%, 40° C., 30′) was 3.27 and the Reduction factor (Escherichia coli; 0.1%, 40° C., 60′) was 3.46. It also gave a Reduction factor (Escherichia coli; 0.1%, 50° C., 15′) of 3.74, a Reduction factor (Escherichia coli; 0.1%, 50° C., 30′) of 4.95 and a Reduction factor (Escherichia coli; 0.1%, 50° C., 60′) of 4.90. For the same molecule, the Reduction factor (Escherichia coli; 0.1%, room temperature, 15′) was 0.00, the Reduction factor (Escherichia coli; 0.1%, room temperature, 30′) was 0.54 and the Reduction factor (Escherichia coli; 0.1%, room temperature, 60′) was 0.50. The Reduction factor (Pseudomonas aeruginosa; 0.05%, 30° C., 15′) was 0.00, the Reduction factor (Pseudomonas aeruginosa; 0.05%, 30° C., 30′) was 0.00 and the Reduction factor (Pseudomonas aeruginosa; 0.05%, 30° C., 60′) was 0.00. The Reduction factor (Pseudomonas aeruginosa; 0.05%, 40° C., 15′) was 0.00, the Reduction factor (Pseudomonas aeruginosa; 0.05%, 40° C., 30′) was 0.00 and the Reduction factor (Pseudomonas aeruginosa; 0.05%, 40° C., 60′) was 0.00. For the same molecule, the Reduction factor (Pseudomonas aeruginosa; 0.05%, 50° C., 15′) was 0.00, the Reduction factor (Pseudomonas aeruginosa; 0.05%, 50° C., 30′) was 0.85 and the Reduction factor (Pseudomonas aeruginosa; 0.05%, 50° C., 60′) was 0.96. It also gave a Reduction factor (Pseudomonas aeruginosa; 0.05%, room temperature, 15′) of 0.00, a Reduction factor (Pseudomonas aeruginosa; 0.05%, room temperature, 30′) of 0.00 and a Reduction factor (Pseudomonas aeruginosa; 0.05%, room temperature, 60′) of 0.00. It also gave a Reduction factor (Pseudomonas aeruginosa; 0.1%, 30° C., 15′) of 0.00, a Reduction factor (Pseudomonas aeruginosa; 0.1%, 30° C., 30′) of 0.00 and a Reduction factor (Pseudomonas aeruginosa; 0.1%, 30° C., 60′) of 1.01. For the same molecule, the Reduction factor (Pseudomonas aeruginosa; 0.1%, 40° C., 15′) was 1.03, the Reduction factor (Pseudomonas aeruginosa; 0.1%, 40° C., 30′) was 1.10 and the Reduction factor (Pseudomonas aeruginosa; 0.1%, 40° C., 60′) was 1.14. For the same molecule, the Reduction factor (Pseudomonas aeruginosa; 0.1%, 50° C., 15′) was 3.55, the Reduction factor (Pseudomonas aeruginosa; 0.1%, 50° C., 30′) was 3.50 and the Reduction factor (Pseudomonas aeruginosa; 0.1%, 50° C., 60′) was 4.00. For the same molecule, the Reduction factor (Pseudomonas aeruginosa; 0.1%, room temperature, 15′) was 0.00, the Reduction factor (Pseudomonas aeruginosa; 0.1%, room temperature, 30′) was 0.00 and the Reduction factor (Pseudomonas aeruginosa; 0.1%, room temperature, 60′) was 0.00. It also gave a Reduction factor (Staphylococcus aureus; 0.05%, 30° C., 15′) of 0.00, a Reduction factor (Staphylococcus aureus; 0.05%, 30° C., 30′) of 0.00 and a Reduction factor (Staphylococcus aureus; 0.05%, 30° C., 60′) of 0.00. For the same molecule, the Reduction factor (Staphylococcus aureus; 0.05%, 40° C., 15′) was 0.70, the Reduction factor (Staphylococcus aureus; 0.05%, 40° C., 30′) was 0.88 and the Reduction factor (Staphylococcus aureus; 0.05%, 40° C., 60′) was 0.57. The Reduction factor (Staphylococcus aureus; 0.05%, 50° C., 15′) was 0.58, the Reduction factor (Staphylococcus aureus; 0.05%, 50° C., 30′) was 0.81 and the Reduction factor (Staphylococcus aureus; 0.05%, 50° C., 60′) was 0.29. For the same molecule, the Reduction factor (Staphylococcus aureus; 0.05%, room temperature, 15′) was 0.00, the Reduction factor (Staphylococcus aureus; 0.05%, room temperature, 30′) was 0.00 and the Reduction factor (Staphylococcus aureus; 0.05%, room temperature, 60′) was 0.00. For the same molecule, the Reduction factor (Staphylococcus aureus; 0.1%, 30° C., 15′) was 0.78, the Reduction factor (Staphylococcus aureus; 0.1%, 30° C., 30′) was 0.53 and the Reduction factor (Staphylococcus aureus; 0.1%, 30° C., 60′) was 0.35. For the same molecule, the Reduction factor (Staphylococcus aureus; 0.1%, 40° C., 15′) was 0.97, the Reduction factor (Staphylococcus aureus; 0.1%, 40° C., 30′) was 1.56 and the Reduction factor (Staphylococcus aureus; 0.1%, 40° C., 60′) was 1.45. The Reduction factor (Staphylococcus aureus; 0.1%, 50° C., 15′) was 2.44, the Reduction factor (Staphylococcus aureus; 0.1%, 50° C., 30′) was 4.93 and the Reduction factor (Staphylococcus aureus; 0.1%, 50° C., 60′) was 4.70. For the same molecule, the Reduction factor (Staphylococcus aureus; 0.1%, room temperature, 15′) was 0.00, the Reduction factor (Staphylococcus aureus; 0.1%, room temperature, 30′) was 0.00 and the Reduction factor (Staphylococcus aureus; 0.1%, room temperature, 60′) was 0.96. The “Activity on Mycobacterium terrae (in words)” value ([1]; 0.05% by weight, 50° C., 60 minutes) was “neither 0.05% by weight SC 50 nor 0.75% by weight POE, even acting for a time of 60 minutes, display any activity”, the Reduction factor ([1]; 30° C., 15′) was 0.00 and the Reduction factor ([1]; 30° C., 30′) was 0.00. The Reduction factor ([1]; 30° C., 60′) was 0.00, the Reduction factor ([1]; 40° C., 15′) was 0.00 and the Reduction factor ([1]; 40° C., 30′) was 0.00. The Reduction factor ([1]; 40° C., 60′) was 0.00, the Reduction factor ([1]; 50° C., 15′) was 3.10 and the Reduction factor ([1]; 50° C., 30′) was 3.34. The Reduction factor ([1]; 50° C., 60′) was 3.48, the Reduction factor ([1]; room temperature, 15′) was 0.00 and the Reduction factor ([1]; room temperature, 30′) was 0.00. The Reduction factor ([1]; room temperature, 60′) was 0.00, the “Activity (in words)” value ([2]; 0.1% by weight solution, 50° C.) was “broad activity on gram-positive and gram-negative bacteria, yeasts and mycobacteria” and the “Activity (in words)” value ([2]; 0.1% by weight, low temperature) was “virtually no antimicrobial activity”. The “Activity on bacteria (gram-positive and gram-negative) and mycobacteria (in words)” value ([2]; above 25° C.) was “particularly active” and the “Activity on yeasts (e.g. Candida albicans) and moulds (e.g. Aspergillus niger) (in words)” value ([2]; use concentration 0.1% by weight) was “still requires improvement”.

Source: patent US20040208783A1, “Process for the chemical and thermal disinfection” (priority 2003, published 2004)
